Measured values reported in US20070128235A1, “Juvenile hormone transmethylase genes and method of using the same” (Inc. Admin Agency Natl Agr and Bio-oriented Research Org, priority 2003, published 2007).

Key:
[1] = tested on: recombinant Bombyx mori JHAMT; assay: Juvenile hormone synthesis by recombinant juvenile hormone acid methyltransferase (enzyme reaction, reverse phase HPLC); type: biochemical; conditions: 25° C.; for production of the corresponding active juvenile hormone in the reaction solution: 100 μg substrate, S-adenosyl methionine, ten minutes, reverse phase HPLC (FIG. 4); for molecular activity (number of substrate molecules changed to reaction product by one molecule of the enzyme in one minute): Tris-HCL 50 mM, pH 7.5, 1 mM S-adenosyl methionine and 100 μM of each JH acid, mean±standard deviation, n=3
Experimental: (§1) A reverse phase column (CAPCELL PAK C18 UG80 S-5, 3×150 mm, Shiseido) was attached to an HPLC apparatus (JASCO), and juvenile hormones were detected by measuring absorbance at 217 nm using an ultraviolet detector. Samples were flowed at a rate of 0.5 ml/min, at a column retention temperature of 40° C., for 20 minutes, in 60% acetonitrile or 80% acetonitrile.
100 μg of a juvenile hormone acid (either JH I acid, JH II acid, JH III acid, or farnesoic acid) dissolved in toluene was transferred into a silicone-treated glass test tube (10×150 mm) using a glass capillary, and the solvent was removed under a nitrogen stream. 800 μl of buffer (50 mM Tris-Cl, pH 7.5) and 100 μl of 10 mM S-adenosyl methionine solution were added thereto and mixed sufficiently, then left to stand in a 25° C. thermostat water bath for five minutes. 100 μl of the recombinant protein solution obtained by the method of Example 3 was added thereto to initiate enzyme reaction. After ten minutes, 250 μl of reaction termination solution (methanol:water:concentrated aqueous ammonia=10:9:1) was added to terminate the enzyme reaction 1 ml of isooctane was added and mixed sufficiently, then the mixture was centrifuged (2,000 rpm, 15 minutes, room temperature) to separate the organic solvent layer and the aqueous layer. 100 μl of the organic solvent layer was transferred into a small vial using a glass capillary, and then the solvent was removed under a nitrogen stream to obtain a residue, which was dissolved in 100 μl of acetonitrile to analyze the synthesized juvenile hormone by a method using reverse phase HPLC. […] The molecular activities of the recombinant Bombyx mori JHAMT against JH I acid, JH II acid, JH III acid, and farnesoic acid were determined in conditions where the buffer was Tris-HCL (50 mM, pH 7.5), the reaction temperature was 25° C., and the substrates were 1 mM of S-adenosyl methionine and 100 μM of each JH acid. These activities (the number of substrate molecules changed to reaction product by one molecule of the enzyme in one minute) were 1.80±0.32, 1.65±0.23, 0.79 ±0.06, and 0.48±0.07 (mean±standard deviation n=3), respectively. When a saturated straight chain fatty acid or an unsaturated straight chain fatty acid was used as a substrate, methyl esterification by the enzyme was not observed. Therefore, the enzyme reaction was substrate-specific to juvenile hormone acid.

[2] = molecular target: T1, recombinant Drosophila melanogaster JHAMT (Drosophila melanogaster, UniProt Q9VJK8, F166Y/S182N); assay: Molecular activity of recombinant Drosophila melanogaster juvenile hormone acid methyltransferase; type: biochemical; conditions: Tris-HCL 50 mM, pH 7.5; 25° C.; 1 mM S-adenosyl methionine and 100 μM of each JH acid; mean±standard deviation, n=3
T1 construct: to amplify the coding region of the juvenile hormone acid methyltransferase gene from Drosophila melanogaster; made in house
Experimental: as §1
100 μg of a juvenile hormone acid (either JH I acid, JH II acid, JH III acid, or farnesoic acid) dissolved in toluene was transferred into a silicone-treated glass test tube (10×150 mm) using a glass capillary, and the solvent was removed under a nitrogen stream. 800 μl of buffer (50 mM Tris-Cl, pH 7.5) and 100 μl of 10 mM S-adenosyl methionine solution were added thereto and mixed sufficiently, then left to stand in a 25° C. thermostat water bath for five minutes. 100 μl of the recombinant protein solution obtained by the method of Example 3 was added thereto to initiate enzyme reaction. After ten minutes, 250 μl of reaction termination solution (methanol:water:concentrated aqueous ammonia=10:9:1) was added to terminate the enzyme reaction 1 ml of isooctane was added and mixed sufficiently, then the mixture was centrifuged (2,000 rpm, 15 minutes, room temperature) to separate the organic solvent layer and the aqueous layer. […] The molecular activities of the recombinant Bombyx mori JHAMT against JH I acid, JH II acid, JH III acid, and farnesoic acid were determined in conditions where the buffer was Tris-HCL (50 mM, pH 7.5), the reaction temperature was 25° C., and the substrates were 1 mM of S-adenosyl methionine and 100 μM of each JH acid. […]
cDNAs synthesized by reverse transcription of RNA extracted from a whole adult Drosophila melanogaster were used as a template for PCR using the DMJF primer (SEQ ID NO: 17) and DMJR primer (SEQ ID NO: 18) to amplify the coding region of the juvenile hormone acid methyltransferase gene from Drosophila melanogaster. […] The activity of the recombinant protein was determined by the same method as in Example 4, confirming that the protein encoded by the gene had juvenile hormone acid methyltransferase activity. The molecular activities of the recombinant Drosophila melanogaster JHAMT against JH I acid, JH II acid, JH III acid, and farnesoic acid were determined under conditions where the buffer was Tris-HCL (50 mM, pH 7.5), the reaction temperature was 25° C., and the substrates were 1 mM of S-adenosyl methionine and 100 μM of each JH acid. These activities were determined to be 2.67±0.44, 2.07±0.26, 1.76±0.13, and 2.3±0.51 (mean±standard deviation, n=3), respectively.

T1 sequence (Q9VJK8 whole entry F166Y/S182N): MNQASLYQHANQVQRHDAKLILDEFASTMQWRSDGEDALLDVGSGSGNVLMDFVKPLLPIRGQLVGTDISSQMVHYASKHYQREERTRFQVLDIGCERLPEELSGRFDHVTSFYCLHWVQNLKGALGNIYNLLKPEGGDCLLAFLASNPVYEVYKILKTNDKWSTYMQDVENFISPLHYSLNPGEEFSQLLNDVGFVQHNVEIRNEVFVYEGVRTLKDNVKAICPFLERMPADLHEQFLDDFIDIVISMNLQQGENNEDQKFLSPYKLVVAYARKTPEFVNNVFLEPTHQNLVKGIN

SMILES	production of the corresponding active juvenile hormone in the reaction solution [1]	molecular activity (number of substrate molecules changed to reaction product by one molecule of the enzyme in one minute) [1]	molecular activity [2]
CC[C@]1(C)O[C@@H]1CC/C(C)=C/CC/C(C)=C/C(=O)O [JH II acid]	confirmed to be produced	1.65±0.23	2.07±0.26
C/C(=C\C(=O)O)CC/C=C(\C)CCC1OC1(C)C (stereo not drawn) [JH III acid]	confirmed to be produced	0.79 ±0.06	1.76±0.13
CC(C)=CCCC(C)=CCCC(C)=CC(=O)O [farnesoic acid]	confirmed to be produced	0.48±0.07	2.3±0.51
CC/C(=C\CC/C(C)=C/C(=O)O)CCC1OC1(C)CC (stereo not drawn) [JH I acid]	confirmed to be produced	1.80±0.32	2.67±0.44
